{
  "source": "patent US20260262643A1",
  "about": "“HERBICIDAL BENZOXAZINES” (FMC CORPORATION, priority 2022, published 2026)",
  "key": {"barnyardgrass [1]": {"tested_on": "barnyardgrass", "experiment": "Test C preemergence", "assay_type": "in vivo, Echinochloa crusgalli", "summary_of_the_method": "(§1)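 Visual injury score, 0–100 (100 = complete control), taken 10 days after treatment relative to untreated controls. Pre: directed spray onto soil over sown seeds. Post: foliar spray at one- to two-leaf stage, 2–10 cm. Solvent/surfactant formulation; loam–sand soil; greenhouse.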"}, "blackgrass [2]": {"tested_on": "blackgrass", "experiment": "Test C preemergence", "assay_type": "in vivo, Alopecurus myosuroides", "summary_of_the_method": "as §1"}, "corn [3]": {"tested_on": "corn", "experiment": "Test C preemergence", "assay_type": "in vivo, Zea mays", "summary_of_the_method": "as §1"}, "foxtail, giant [4]": {"tested_on": "foxtail, giant", "experiment": "Test C preemergence", "assay_type": "in vivo, Setaria faberi", "summary_of_the_method": "as §1"}, "kochia [5]": {"tested_on": "kochia", "experiment": "Test C preemergence", "assay_type": "in vivo, Bassia scoparia", "summary_of_the_method": "as §1"}, "oat, wild [6]": {"tested_on": "oat, wild", "experiment": "Test C preemergence", "assay_type": "in vivo, Avena fatua", "summary_of_the_method": "as §1"}, "pigweed, palmer [7]": {"tested_on": "pigweed, palmer", "experiment": "Test C preemergence", "assay_type": "in vivo, Amaranthus palmeri", "summary_of_the_method": "as §1"}, "ragweed [8]": {"tested_on": "ragweed", "experiment": "Test C preemergence", "assay_type": "in vivo, Ambrosia artemisiifolia", "summary_of_the_method": "as §1"}, "ryegrass, Italian [9]": {"tested_on": "ryegrass, Italian", "experiment": "Test C preemergence", "assay_type": "in vivo, Lolium multiflorum", "summary_of_the_method": "as §1"}, "soybean [10]": {"tested_on": "soybean", "experiment": "Test C preemergence", "assay_type": "in vivo, Glycine max", "summary_of_the_method": "as §1"}, "wheat [11]": {"tested_on": "wheat", "experiment": "Test C preemergence", "assay_type": "in vivo, Triticum aestivum", "summary_of_the_method": "as §1"}, "barnyardgrass [12]": {"tested_on": "barnyardgrass", "experiment": "Test C postemergence", "assay_type": "in vivo, Echinochloa crusgalli", "conditions": "10 days, 0 to 100 scale (0 no effect, 100 complete control)", "summary_of_the_method": "as §1"}, "blackgrass [13]": {"tested_on": "blackgrass", "experiment": "Test C postemergence", "assay_type": "in vivo, Alopecurus myosuroides", "conditions": "10 days, 0 to 100 scale (0 no effect, 100 complete control)", "summary_of_the_method": "as §1"}, "corn [14]": {"tested_on": "corn", "experiment": "Test C postemergence", "assay_type": "in vivo, Zea mays", "conditions": "10 days, 0 to 100 scale (0 no effect, 100 complete control)", "summary_of_the_method": "as §1"}, "foxtail, giant [15]": {"tested_on": "foxtail, giant", "experiment": "Test C postemergence", "assay_type": "in vivo, Setaria faberi", "conditions": "10 days, 0 to 100 scale (0 no effect, 100 complete control)", "summary_of_the_method": "as §1"}, "kochia [16]": {"tested_on": "kochia", "experiment": "Test C postemergence", "assay_type": "in vivo, Bassia scoparia", "conditions": "10 days, 0 to 100 scale (0 no effect, 100 complete control)", "summary_of_the_method": "as §1"}, "oat, wild [17]": {"tested_on": "oat, wild", "experiment": "Test C postemergence", "assay_type": "in vivo, Avena fatua", "conditions": "10 days, 0 to 100 scale (0 no effect, 100 complete control)", "summary_of_the_method": "as §1"}, "pigweed, palmer [18]": {"tested_on": "pigweed, palmer", "experiment": "Test C postemergence", "assay_type": "in vivo, Amaranthus palmeri", "conditions": "10 days, 0 to 100 scale (0 no effect, 100 complete control)", "summary_of_the_method": "as §1"}, "ragweed [19]": {"tested_on": "ragweed", "experiment": "Test C postemergence", "assay_type": "in vivo, Ambrosia artemisiifolia", "conditions": "10 days, 0 to 100 scale (0 no effect, 100 complete control)", "summary_of_the_method": "as §1"}, "ryegrass, Italian [20]": {"tested_on": "ryegrass, Italian", "experiment": "Test C postemergence", "assay_type": "in vivo, Lolium multiflorum", "conditions": "10 days, 0 to 100 scale (0 no effect, 100 complete control)", "summary_of_the_method": "as §1"}, "soybean [21]": {"tested_on": "soybean", "experiment": "Test C postemergence", "assay_type": "in vivo, Glycine max", "conditions": "10 days, 0 to 100 scale (0 no effect, 100 complete control)", "summary_of_the_method": "as §1"}, "wheat [22]": {"tested_on": "wheat", "experiment": "Test C postemergence", "assay_type": "in vivo, Triticum aestivum", "conditions": "10 days, 0 to 100 scale (0 no effect, 100 complete control)", "summary_of_the_method": "as §1"}, "galium": {"tested_on": "galium", "experiment": "Test C postemergence", "assay_type": "in vivo, Galium aparine", "conditions": "10 days, 0 to 100 scale (0 no effect, 100 complete control)", "summary_of_the_method": "as §1"}, "horseweed": {"tested_on": "horseweed", "experiment": "Test C postemergence", "assay_type": "in vivo, Erigeron canadensis", "conditions": "10 days, 0 to 100 scale (0 no effect, 100 complete control)", "summary_of_the_method": "as §1"}, "barnyardgrass [23]": {"tested_on": "barnyardgrass", "experiment": "Test D flooded paddy test", "assay_type": "in vivo, Echinochloa crus-galli", "conditions": "250 g ai/ha, applied to paddy water, visual rating after 13 to 14 days, scale 0 to 100 (0 no effect, 100 complete control)", "summary_of_the_method": "(§2)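 2-leaf plants; flood 3 cm above soil; compound dosed into paddy water; greenhouse 13–14 d; visual rating vs controls, 0–100 (100 = complete control); dash = not tested.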"}, "ducksalad": {"tested_on": "ducksalad", "experiment": "Test D flooded paddy test", "assay_type": "in vivo, Heteranthera limosa", "conditions": "250 g ai/ha, applied to paddy water, visual rating after 13 to 14 days, scale 0 to 100 (0 no effect, 100 complete control)", "summary_of_the_method": "as §2"}, "rice": {"tested_on": "rice", "experiment": "Test D flooded paddy test", "assay_type": "in vivo, Oryza sativa", "conditions": "250 g ai/ha, applied to paddy water, visual rating after 13 to 14 days, scale 0 to 100 (0 no effect, 100 complete control)", "summary_of_the_method": "as §2"}, "sedge, umbrella": {"tested_on": "sedge, umbrella", "experiment": "Test D flooded paddy test", "assay_type": "in vivo, Cyperus difformis", "conditions": "250 g ai/ha, applied to paddy water, visual rating after 13 to 14 days, scale 0 to 100 (0 no effect, 100 complete control)", "summary_of_the_method": "as §2"}, "[24]": {"conditions": "500 g ai/ha, preemergence, 0 to 100 scale (0 no effect, 100 complete control)"}, "[25]": {"conditions": "Preemergence, 125 g ai/ha, 0 to 100 scale, 0 no effect, 100 complete control"}},
  "data": [
    {"smiles": "Cc1cccc2c1OC(C(F)(F)F)CN2C(=O)c1ccnc(-n2cnc(C(C)C)n2)c1", "note": "(stereo not shown) [Compound 327]", "values": [
      {"measurement": "Barnyardgrass plant response rating", "setting": "barnyardgrass [1]; [24]", "value": 90},
      {"measurement": "Plant response rating, Barnyardgrass", "setting": "barnyardgrass [1]; [25]", "value": 50},
      {"measurement": "Blackgrass plant response rating", "setting": "blackgrass [2]; [24]", "value": 90},
      {"measurement": "Plant response rating, Blackgrass", "setting": "blackgrass [2]; [25]", "value": 90},
      {"measurement": "Corn plant response rating", "setting": "corn [3]; [24]", "value": 70},
      {"measurement": "Plant response rating, Corn", "setting": "corn [3]; [25]", "value": 20},
      {"measurement": "Foxtail, Giant plant response rating", "setting": "foxtail, giant [4]; [24]", "value": 100},
      {"measurement": "Plant response rating, Foxtail, Giant", "setting": "foxtail, giant [4]; [25]", "value": 100},
      {"measurement": "Kochia plant response rating", "setting": "kochia [5]; [24]", "value": 90},
      {"measurement": "Plant response rating, Kochia", "setting": "kochia [5]; [25]", "value": 20},
      {"measurement": "Oat, Wild plant response rating", "setting": "oat, wild [6]; [24]", "value": 70},
      {"measurement": "Plant response rating, Oat, Wild", "setting": "oat, wild [6]; [25]", "value": 20},
      {"measurement": "Pigweed, Palmer plant response rating", "setting": "pigweed, palmer [7]; [24]", "value": 90},
      {"measurement": "Plant response rating, Pigweed, Palmer", "setting": "pigweed, palmer [7]; [25]", "value": 50},
      {"measurement": "Ragweed plant response rating", "setting": "ragweed [8]; [24]", "value": 30},
      {"measurement": "Plant response rating, Ragweed", "setting": "ragweed [8]; [25]", "value": 0},
      {"measurement": "Ryegrass, Italian plant response rating", "setting": "ryegrass, Italian [9]; [24]", "value": 100},
      {"measurement": "Plant response rating, Ryegrass, Italian", "setting": "ryegrass, Italian [9]; [25]", "value": 90},
      {"measurement": "Soybean plant response rating", "setting": "soybean [10]; [24]", "value": 100},
      {"measurement": "Plant response rating, Soybean", "setting": "soybean [10]; [25]", "value": 100},
      {"measurement": "Wheat plant response rating", "setting": "wheat [11]; [24]", "value": 90},
      {"measurement": "Plant response rating, Wheat", "setting": "wheat [11]; [25]", "value": 40},
      {"measurement": "Plant response rating, Barnyardgrass", "setting": "barnyardgrass [12]; 500 g ai/ha, postemergence", "value": 90},
      {"measurement": "Plant response rating, Barnyardgrass", "setting": "barnyardgrass [12]; Postemergence, 125 g ai/ha", "value": 40},
      {"measurement": "Plant response rating, Blackgrass", "setting": "blackgrass [13]; 500 g ai/ha, postemergence", "value": 90},
      {"measurement": "Plant response rating, Blackgrass", "setting": "blackgrass [13]; Postemergence, 125 g ai/ha", "value": 30},
      {"measurement": "Plant response rating, Corn", "setting": "corn [14]; 500 g ai/ha, postemergence", "value": 90},
      {"measurement": "Plant response rating, Corn", "setting": "corn [14]; Postemergence, 125 g ai/ha", "value": 70},
      {"measurement": "Plant response rating, Foxtail, Giant", "setting": "foxtail, giant [15]; 500 g ai/ha, postemergence", "value": 90},
      {"measurement": "Plant response rating, Foxtail, Giant", "setting": "foxtail, giant [15]; Postemergence, 125 g ai/ha", "value": 60},
      {"measurement": "Plant response rating, Kochia", "setting": "kochia [16]; 500 g ai/ha, postemergence", "value": 90},
      {"measurement": "Plant response rating, Kochia", "setting": "kochia [16]; Postemergence, 125 g ai/ha", "value": 40},
      {"measurement": "Plant response rating, Oat, Wild", "setting": "oat, wild [17]; 500 g ai/ha, postemergence", "value": 90},
      {"measurement": "Plant response rating, Oat, Wild", "setting": "oat, wild [17]; Postemergence, 125 g ai/ha", "value": 40},
      {"measurement": "Plant response rating, Pigweed, Palmer", "setting": "pigweed, palmer [18]; 500 g ai/ha, postemergence", "value": 50},
      {"measurement": "Plant response rating, Pigweed, Palmer", "setting": "pigweed, palmer [18]; Postemergence, 125 g ai/ha", "value": 30},
      {"measurement": "Plant response rating, Ragweed", "setting": "ragweed [19]; 500 g ai/ha, postemergence", "value": 40},
      {"measurement": "Plant response rating, Ragweed", "setting": "ragweed [19]; Postemergence, 125 g ai/ha", "value": 30},
      {"measurement": "Plant response rating, Ryegrass, Italian", "setting": "ryegrass, Italian [20]; 500 g ai/ha, postemergence", "value": 80},
      {"measurement": "Plant response rating, Ryegrass, Italian", "setting": "ryegrass, Italian [20]; Postemergence, 125 g ai/ha", "value": 40},
      {"measurement": "Plant response rating, Soybean", "setting": "soybean [21]; 500 g ai/ha, postemergence", "value": 100},
      {"measurement": "Plant response rating, Soybean", "setting": "soybean [21]; Postemergence, 125 g ai/ha", "value": 100},
      {"measurement": "Plant response rating, Wheat", "setting": "wheat [22]; 500 g ai/ha, postemergence", "value": 30},
      {"measurement": "Plant response rating, Wheat", "setting": "wheat [22]; Postemergence, 125 g ai/ha", "value": 20},
      {"measurement": "Plant response rating, Galium", "setting": "galium; 500 g ai/ha, postemergence", "value": 100},
      {"measurement": "Plant response rating, Galium", "setting": "galium; Postemergence, 125 g ai/ha", "value": 70},
      {"measurement": "Plant response rating, Horseweed", "setting": "horseweed; 500 g ai/ha, postemergence", "value": 60},
      {"measurement": "Plant response rating, Horseweed", "setting": "horseweed; Postemergence, 125 g ai/ha", "value": 0},
      {"measurement": "Plant response rating, Barnyardgrass (Flood)", "setting": "barnyardgrass [23]", "value": 15},
      {"measurement": "Plant response rating, Ducksalad (Flood)", "setting": "ducksalad", "value": 25},
      {"measurement": "Plant response rating, Rice (Flood)", "setting": "rice", "value": 0},
      {"measurement": "Plant response rating, Sedge, Umbrella (Flood)", "setting": "sedge, umbrella", "value": 70}
    ]}
  ]
}
